Reference: US12039796B2, “Method for classifying cells” (Sartorius BioAnalytical Instruments, Inc., priority 2019, dated 2024)
Read-outs that look alike come from different tables or passages of the source.

Experiments:
HT1080 fibrosarcoma = HT1080 fibrosarcoma apoptosis time course, multiplexed NucLight Red (viability) and Caspase 3/7 Green (apoptosis) readouts with cell-by-cell analysis; format: cell-based
Method: Example implementations permit cell health to be tracked in sub-populations over time. […] Cell health was determined with multiplexed readouts of Incucyte® NucLight Red (nuclear viability marker) and non-perturbing Incucyte® Caspase 3/7 Green Reagent (apoptotic indicator). […] Values shown are the mean±SEM of 3 wells.
Cell health was determined with multiplexed readouts of Incucyte® NucLight Red (nuclear viability marker) and non-perturbing Incucyte® Caspase 3/7 Green Reagent (apoptotic indicator). […] Values shown are the mean±SEM of 3 wells.

A549 cells = experiment: A549 cell death concentration response, cells classed Dead or Live by Annexin V fluorescence or by label-free trained model; format: cell-based; conditions: Homo sapiens, A549, 72 h, 0.1-10 μM, FIG. 16C
Method: The classification methods described herein facilitate classification of cells with an accuracy that approximates the accuracy of fluorophore-based methods. This allows for accurate classification without the expense, complexity, or experimental confounding effects that may be associated with the use of fluorescent labels. In an experiment, A549 cells were treated with increasing concentrations of the cytotoxic compound camptothecin (0.1-10 μM) for 72 h in the presence of Annexin V reagent. The cells were classed as Dead or Live based on fluorescence Annexin response (live cells=low fluorescence, dead cells=high fluorescence). The metric-based methods described herein were used to train a model using label-free features of dead (10 μM, 72 h) and live (vehicle, 0-72 h) cells.

[1] = HT1080, after treatment, FIG. 6C

## C[C@@H]1C[C@@H]([C@H](O)CC2CC(=O)NC(=O)C2)C(=O)[C@@H](C)C1 [CHX, cyclohexamide]
HT1080 fibrosarcoma; HT1080, after treatment, FIG. 6G
  apoptosis: lack of apoptosis
HT1080 fibrosarcoma; HT1080, after treatment, FIG. 6G (data not shown)
  cell counts: decrease in cell counts

## CC[C@@]1(O)C(=O)OCc2c1cc1n(c2=O)Cc2cc3ccccc3nc2-1 [camptothecin]
HT1080 fibrosarcoma; HT1080, after 24 hours, FIG. 6C
  green fluorescence (late apoptosis): increasing green fluorescence after 24 hours indicating late apoptosis
HT1080 fibrosarcoma; [1]
  red and green fluorescence (early apoptosis): increasing red and green fluorescence indicating early apoptosis
  red population (NucLight Red, viable cells): decrease in the red population
A549 cells; Annexin V fluorescence-based classification, read-out: Annexin V EC50 (% death)
  EC50: 660 nM
A549 cells; label-free metric-based trained model classification, read-out: Label-free EC50 (% death)
  EC50: 530 nM
